Assay results from patent US6863895B2, “Mycobacterial sulfation pathway proteins and methods of use thereof” (priority 2001, dated 2005).

Key:
[1] = target: T1, M. tuberculosis CysC (APS kinase) (Mycobacterium tuberculosis, UniProt P9WNM5); type: biochemical
T1 construct: made in house; host or cells: E. coli BL21 STAR, plasmid pET28b(+)CysC
T1 sequence (P9WNM5 442-614 limits assumed): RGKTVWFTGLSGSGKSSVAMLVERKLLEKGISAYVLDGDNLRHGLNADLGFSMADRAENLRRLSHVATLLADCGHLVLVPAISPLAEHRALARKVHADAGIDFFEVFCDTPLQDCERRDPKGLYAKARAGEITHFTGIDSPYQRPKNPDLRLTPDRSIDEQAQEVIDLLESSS

[2] = target: APS kinase of E. coli (Escherichia coli, UniProt P0A6J1); conditions: cited from earlier work
[3] = system: E. coli CysC (JM81A complemented with M. tuberculosis CysC); assay: microbe, parasite or virus in culture; type: cell-based; conditions: Escherichia coli, read-out: percent inhibition of growth
[4] = system: E. coli CysH (JM81A complemented with M. smegmatis CysH); assay: microbe, parasite or virus in culture; type: cell-based; conditions: Escherichia coli; E. coli CysH strain; 25 μg/mL of compound; read-out: percent inhibition of growth
[5] = system: E. coli BioB (JM81A control strain containing the BioB gene); assay: microbe, parasite or virus in culture; type: cell-based; conditions: Escherichia coli, 25 μg/mL of compound, read-out: percent inhibition of growth

Chain of APS kinase of E. coli (P0A6J1 whole entry): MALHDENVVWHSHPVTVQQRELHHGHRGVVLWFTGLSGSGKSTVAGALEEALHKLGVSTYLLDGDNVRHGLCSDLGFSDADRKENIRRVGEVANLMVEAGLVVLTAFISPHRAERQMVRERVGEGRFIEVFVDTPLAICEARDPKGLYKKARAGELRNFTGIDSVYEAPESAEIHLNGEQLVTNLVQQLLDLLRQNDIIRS

Structure (SMILES) | VmaxE0 [1] [s⁻¹] | VmaxE0 (two-fold decrease) [1] [mM⁻¹ s⁻¹] | apparent VmaxE0 [1] [s⁻¹] | Km [2] [µM] | inhibition at 25 µg/mL [3] [%] | inhibition at 25 µg/mL [4] [%] | inhibition at 25 µg/mL [5] [%] | Km ([1]; read-out: apparent Km) [µM]
Nc1ncnc2c1ncn2[C@@H]1O[C@H](COP(=O)(O)OS(=O)(=O)O)[C@@H](O)[C@H]1O [APS, adenylyl phosphosulfate] | 1.05 | 611 | 0.85 ± 0.04 | 0.25 | – | – | – | –
CCN(CC)CC[n+]1ccc2c(C)c3[nH]c4ccccc4c3c(C)c2c1 | – | – | – | – | 98 | 97 | 0 | –
[N-]=[N+]=Nc1ccc(S(=O)(=O)Nc2ncccn2)cc1 | – | – | – | – | 95 | 0 | 85 | –
CC(=N/Nc1nc2ccccc2s1)/N=N/c1cccc(O)c1 | – | – | – | – | 47 | 0 | 0 | –
O=C1Oc2ccccc2C(=O)/C1=C/Nc1ncc(-c2ccc(O)c(O)c2)s1 | – | – | – | – | 78 | 90 | 0 | –
Nc1ccc(S(=O)(=O)Nc2cnc3ccccc3n2)cc1 | – | – | – | – | 94 | 29 | 77 | –
O=C(O)c1ccccc1N[C@H](c1ccccc1)c1ccc2cccnc2c1O | – | – | – | – | 93 | 25 | 1 | –
Nc1ncnc2c1ncn2[C@@H]1O[C@H](COP(=O)(O)OP(=O)(O)OP(=O)(O)O)[C@@H](O)[C@H]1O [ATP] | – | – | 0.95 ± 0.03 | – | – | – | – | 910 ± 100
